Test results taken from US20100069244A1, “Pyridine Compounds for Combating Pests” (priority 2006, published 2010).

System: Colorado Potato Beetle (Leptinotarsa decemlineata)
Experiment: Activity against Colorado potato beetle, potato leaf dip
Format: in vivo
Settings: foliar, 120 h, read-out: mortality compared to 0% mortality of untreated controls
Method: 6. Activity Against Colorado Potato Beetle (Leptinotarsa decemlineata)
Potato plants were utilized for bioassays. Excised plant leaves were dipped into 1:1 acetone/water dilutions of the active compounds. After the leaves had dried, they were individually placed onto water-moistened filter paper on the bottoms of Petri dishes. Each dish was infested with 5 to 7 larvae and covered with a lid. Each treatment dilution was replicated 4 times. Test dishes were held at approximately 27° C. and 60% humidity. Numbers of live and morbid larvae were assessed in each dish at 5 days after treatment application, and percent mortality was calculated.

For `CC(C)N1CC[C@H]1COc1cncc(Cl)c1` [Ia-155, 3-Chloro-5-((S)-1-isopropyl-azetidin-2-ylmethoxy)-pyridine], the mortality at 300 ppm was over 50%.
